Details: pH 10

O=NO [sodium nitrite]
pH of 10% solution at 25° C.: 7.9

Reference: patent publication US12186337B2 (priority 2009, dated 2025)
